Laboratory results reported in US8193224B2, “Medicinal composition for prevention or treatment of parasitic protozoan infection” (Fujifilm Corporation, priority 2004, dated 2012).
Read-outs that look alike come from different tables or passages of the source.

Tests used:
Format in all cases: cell-based
[1] = tested on: Trypanosoma brucei rhodensiense (STIB 900 strain); assay: African trypanosome protozoa growth inhibition screening test; conditions: chemotherapy index = EC50 rat L6 cells / EC50 African trypanosome protozoa
[2] = Growth inhibition test of rat L6 cells
Procedure: (§1) Rat derived-L6 cells (rat skeletal myoblast cell) were used. As medium, RPMI1640 medium was supplemented so that L-glutamin (200 mM) is 1%, and fetal bovine serum 10%, and the medium was cultured under CO2 concentration 5%, at 37° C. The compounds of the present invention and the target drugs to be used in the test were dissolved in DMSO, to make a test solution of a predetermined concentration. Pre-culture was conducted and medium containing cells which have entered the logarithmic growth phase was taken to wells of a 96-well culture plate. Then, a test solution containing drug of a predetermined concentration or a drug-free DMSO was added. Test solutions were taken by duplicates. Culture plate was cultured for 72 hours in an incubator, to test the growth inhibition activity. Test was conducted as follows.
(§2) 10 μl of Alamar Blue aqueous solution was added to each well, and the resultant was further cultured for 2 hours. Next, the culture plate was placed on a fluorescent micro-plate reader (Spectramax Gemeni XS; US Molecular Device), radiated at an excited wavelength of 536 nm. Fluorescent intensity was measured at 588 nm, and residual rate of L6 cells of the test solution added group, and that of the control was calculated. Based on the cell residual rate obtained in the above, growth inhibition rate to L6 cells was calculated, to obtain a 50% growth inhibition concentration (EC50). Growth inhibition rate (%)={(C−A)/(B−A)}×100 A: primary cell count B: cell count of control, 3 days after C: cell count of wells added with a sample, 3 days after […]

[3] = tested on: Trypanosoma brucei rhodensiense (STIB 900 strain); assay: African trypanosome protozoa growth inhibition screening test; conditions: read-out: 50% growth inhibiting concentration Trypanosoma brucei rhod.
Procedure: In the present example, protozoa of Trypanosoma brucei rhodensiense (STIB 900 strain), a trypamastigote living in blood stream, was used. The medium used in the experiment was a MEM medium which was sterilized with a filter and supplemented with 25 mM N-2-hydroxyethylpiperazine-2-ethansulfonic acid […]), 1 g/L glucose, 1% MEM non-essential amino acid, 0.2 mM 2-mercaptoethanol, 2 mM sodium pyruvate, 0.1 mM hypoxanthine, and 15% heat-treated horse serum. The protozoa was cultured in an atmosphere of CO2 concentration 5%, at a temperature of 37° C.
The compounds of the present invention to be used in the present test and the positive target drug (melarsoprol) were dissolved in DMSO to make a test solution of a predetermined concentration. A medium containing 8×10^3 protozoa, and a test solution containing a drug of a predetermined concentration or a drug-free DMSO were added to wells of a 96-well culture plate, and subsequently, medium was added so that the amount in each well becomes 100 μL. Test solutions were taken by duplicates. After culturing the culture plate for 72 hours in an incubator, growth inhibition activity was tested. Test was conducted as follows. 10 μL of Alamar Blue aqueous solution was added to each well, and the resultant was further cultured for 2 hours. Next, the culture plate was placed on a fluorescent micro-plate reader (Spectramax Gemeni XS; US Molecular Device), radiated at an excited wavelength of 536 nm. Fluorescent intensity was measured at 588 nm, to calculate the trypanosome protozoa infected rate of the test solution added-group, and of the control group. From the protozoan infection rate obtained in the above, growth inhibition rate was calculated with the following formula, to obtain a 50% growth inhibition concentration (EC50). Growth inhibition rate (%)={1−(b−a)/(c−a)}×100 a: early infection rate b: infection rate when test solution was added c: infection rate of the control

[4] = tested on: Rat derived-L6 cells (rat skeletal myoblast cell); assay: Growth inhibition test of rat L6 cells; conditions: 72 hours
Procedure: as §1, §2

[5] = tested on: Leishmania donovani (MHOM/ET/67/L82 strain); assay: Leishmania protozoa growth inhibition screening test; conditions: MHOM/ET/67/L82 strain amastigote, pH 5.4, 72 hours, Alamar Blue, read-out: 50% growth inhibition concentration Leishmania donovani
Procedure: In the present example, Leishmania donovani (MHOM/ET/67/L82 strain) was used. Protozoa was subcultured in Syrian Golden hamster, from which an amastigote was obtained. In the experiment, SM medium supplemented with 10% heat-treated bovine fetal serum was used, which was adjusted to pH 5.4, and cultured in an atmosphere of 5% CO2 concentration, at 37° C.
The compounds of the present invention to be used in the present test and the positive target drug (miltefosine) were dissolved in DMSO to make a test solution of a predetermined concentration. After adding a medium containing a predetermined number of protozoa to wells of a 96-well culture plate and pre-treating, concentration of the amastigote was measured with CASY cell analysis system (Scharfe, Germany). Then, test solution containing a drug of a predetermined concentration or a drug-free DMSO was added. Test solutions were taken by duplicates. After culturing the culture plate for 72 hours in an incubator, growth inhibition activity was tested. Test was conducted as follows.
10 μL of Alamar Blue aqueous solution was added to each well, and the resultant was further cultured for 2 hours. Next, the culture plate was placed on a fluorescent micro-plate reader (Spectramax Gemeni XS; US Molecular Device), radiated at an excited wavelength of 536 nm. Fluorescent intensity was measured at 588 nm, and infection rate of leishmania protozoa of the test solution added-group and control was calculated, to obtain a 50% growth inhibition concentration (EC50). Growth inhibition rate (%)={1−(b−a)/(c−a)}×100 a: early infection rate b: infection rate when test solution was added c: infection rate of the control

[6] = tested on: Plasmodium falciparum K1 strain; assay: Chloroquine resistant-Plasmodium falciparum growth inhibition screening test; conditions: for EC50: chloroquine resistant K1 strain, 3H-hypoxanthine, 48 + 24 hours, read-out: 50% growth inhibition concentration P. falciparum K1; for Selective toxicity: chemotherapy index = EC50 rat L6 cells / EC50 chloroquine resistant P. falciparum
Procedure: In the present example, protozoa of Plasmodium falciparum K1 strain was used. RPMI-1640 medium sterilized with a filter to which human serum was added to be 5%, was used in the experiment. Malarial parasites were cultured under 3% O2 concentration, 4% Co2 concentration, 93% N2 concentration, and at a temperature of 37° C.
The compounds of the present invention to be used in the present test and the positive target drug (chloroquine) were dissolved in DMSO to make a test solution of a predetermined concentration. Cultured malarial parasite infected-erythrocytes were collected by centrifugation, and diluted with non-infected erythrocyte so that the early infection rate is 0.15%. Hematocrit level at that time was 2.5%. 200 μL of malaria infected solution was added to wells of a 96-well culture plate, and adjusted by adding a test solution containing drug of a predetermined concentration or a drug-free DMSO. Test solutions were taken by duplicates. After culturing for 48 hours at 37° C., 0.5 μCi radioactive tritium (3H)-labeled hypoxanthine was added to each well. After further culturing for 24 hours under the same conditions, it was collected on a glass fiber filter and washed with distilled water. Radiation intensity was measured with a beta plate liquid scintillation counter (Wallac), and malarial parasite infection rates of the test solution added group and of the control group were calculated. Growth inhibition rate was calculated with the following formula based on the malarial parasite infection rate obtained in the above, to obtain a 50% growth inhibition concentration (EC50). Growth inhibition rate (%)={1−(b−a)/(c−a)}×100 a: early infection rate b: infection rate when test solution was added c: infection rate of the control

[7] = tested on: Trypanosoma cruzi (Tulahuen C2C4 strain); assay: American trypanosome protozoa growth inhibition screening test; conditions: Tulahuen C2C4 strain in rat L6 cells, 96 hours, CPRG/Nonidet, read-out: 50% growth inhibition concentration Trypanosoma cruzi
Procedure: In the present example, amastigote and trypomastigote infected with rat L6 cells of protozoa of Trypanosoma cruzi (Tulahuen C2C4 strain) were used. As medium used in the test, RPMI 1640 medium containing L6 cells was supplemented so that L-glutamine (200 mM) becomes 1%, fetal bovine serum becomes 10%, which was cultured under CO2 concentration 5%, at 37° C.
The compounds of the present invention to be used in the test and the positive target agent (benznidazole) were dissolved in DMSO to make a test solution of a predetermined concentration. A medium containing 5×10^3 protozoa was added to wells of a 96-well culture plate, and pre-cultured for 48 hours. After replacing the medium, test solution containing drug of a predetermined concentration or a drug-free DMSO was added. Test solutions were taken by duplicates. After culturing the culture plate in an incubator for 96 hours, growth inhibition activity was tested. Test was conducted as follows.
50 μL of CPRG/Nonidet was added to each well, and allowed to rest for 2 to 6 hours. Next, the culture plate was placed on a fluorescent micro-plate reader, and the absorbance was measured at 540 nm. Growth inhibition rate was calculated with the following formula based on the protozoan infection rate which was obtained by calculating trypanosome infection rate of the test solution added group and control group, to obtain a 50% growth inhibition concentration (EC50). Growth inhibition rate (%)={1−(b−a)/(c−a)}×100 a: early infection rate b: infection rate when test solution was added c: infection rate of the control

[8] = Alamar Blue (Table 3), read-out: 50% growth inhibiting concentration Cytotoxicity L6
[9] = Alamar Blue (Table 2), read-out: 50% growth inhibition concentration Cytotoxicity L6
[10] = STIB 900 strain, blood stream form, 72 hours, Alamar Blue
[11] = L6 cells (rat skeletal myoblast), Alamar Blue (Table 2), read-out: 50% growth inhibition concentration Cytotoxicity L6
[12] = Trypanosoma brucei, STIB900, STIB 900 strain, blood stream form, 72 hours, Alamar Blue

Structure (SMILES)	EC50 [4, 9]	EC50 [4, 8]	EC50 [5]	EC50 [3, 10]	EC50 [6]	further results
Nc1nc(N)nc(Nc2ccc([As]3SCC(CO)S3)cc2)n1 (centres unmarked) [melarsoprol, reference compound]	–	–	–	–	–	Selective toxicity [1]: 1300; EC50 at 72 h [2, 8]: 7800 nM; EC50 ([3]; Trypanosoma brucei, STIB900, 72 h): 6 nM
CCn1c(=Cc2sc3c4ccccc4ccc3[n+]2CC)sc(=CC=C2SCCN2C)c1=O [A-9]	8100 nM	8100 nM	23 nM	140 nM	74 nM	EC50 [7]: 4100 nM
CCn1c(=Cc2cc[n+](CC)c3ccccc23)sc(=CC=C2C=Cc3ccccc3N2C)c1=O [A-14]	9100 nM	9100 nM	200 nM	41 nM	140 nM	EC50 [7]: 1200 nM
CCCCCCCCCCCCCCCCOP(=O)([O-])OCC[N+](C)(C)C [miltefosine, reference compound]	–	–	–	–	–	EC50 ([5]; Leishmania donovani): 280 nM
C=CCn1c(=Cc2oc3ccccc3[n+]2C)sc(=CC=C2Sc3ccccc3N2C)c1=O [A-13]	–	13000 nM	47 nM	110 nM	–	EC50 ([4]; Alamar Blue (Table 5), read-out: 50% growth inhibition concentration Cytotoxicity L6): 13000 nM
O=C(Cn1ccnc1[N+](=O)[O-])NCc1ccccc1 [benznidazol, benznidazole, reference compound]	–	–	–	–	–	EC50 ([7]; Trypanosoma cruzi): 870 nM
CCn1c(=Cc2oc3ccccc3[n+]2CC)sc(=CC=C2N(C)c3ccccc3C2(C)C)c1=O [A-8]	1800 nM	1800 nM	56 nM	300 nM	14 nM	EC50 [7]: 990 nM
CCn1c(=O)/c(=C/C=C2\Sc3ccccc3N2C)s/c1=C\c1cccc[n+]1CCCCC(=O)O [A-12]	–	–	–	–	–	Selective toxicity [1]: 19; EC50 at 72 h [2, 11]: 17000 nM; EC50 [3, 12]: 900 nM; EC50 ([6]; Plasmodium falciparum, 72 h): 210 nM; Selective toxicity [6]: 84
CCn1c(=O)/c(=C/C=C2\Sc3ccccc3N2C)s/c1=C\c1cccc[n+]1CCOCCOCCOC [A-6]	–	–	–	–	–	Selective toxicity [1]: 340; EC50 at 72 h [2, 11]: 44000 nM; EC50 [3, 12]: 130 nM; EC50 ([6]; Plasmodium falciparum, 72 h): 190 nM; Selective toxicity [6]: 236
CCn1c(=Cc2cccc[n+]2C)sc(=CC=C2Sc3ccccc3N2C)c1=O [A-4]	76000 nM	76000 nM	–	410 nM	120 nM	–
CCn1c(=O)/c(=C/C=C2\Sc3ccccc3N2C)s/c1=C\c1cccc[n+]1CCO [A-5]	–	–	–	–	–	EC50 at 72 h [2, 11]: 42000 nM; EC50 ([6]; Plasmodium falciparum, 72 h): 270 nM; Selective toxicity [6]: 150
